IC50 data for 18 molecules are collected here from US12421229B2, “Hydropyrido[1,2-α]pyrazine compounds for the treatment of autoimmune disease” (Hoffmann-La Roche Inc., priority 2019, dated 2025).

The target in this assay is T1, human TLR7 (Homo sapiens, UniProt Q9NYK1).
T1 construct: host or cells: HEK293 (HEK-Blue hTLR7)
T1 sequence (Q9NYK1 27-1049): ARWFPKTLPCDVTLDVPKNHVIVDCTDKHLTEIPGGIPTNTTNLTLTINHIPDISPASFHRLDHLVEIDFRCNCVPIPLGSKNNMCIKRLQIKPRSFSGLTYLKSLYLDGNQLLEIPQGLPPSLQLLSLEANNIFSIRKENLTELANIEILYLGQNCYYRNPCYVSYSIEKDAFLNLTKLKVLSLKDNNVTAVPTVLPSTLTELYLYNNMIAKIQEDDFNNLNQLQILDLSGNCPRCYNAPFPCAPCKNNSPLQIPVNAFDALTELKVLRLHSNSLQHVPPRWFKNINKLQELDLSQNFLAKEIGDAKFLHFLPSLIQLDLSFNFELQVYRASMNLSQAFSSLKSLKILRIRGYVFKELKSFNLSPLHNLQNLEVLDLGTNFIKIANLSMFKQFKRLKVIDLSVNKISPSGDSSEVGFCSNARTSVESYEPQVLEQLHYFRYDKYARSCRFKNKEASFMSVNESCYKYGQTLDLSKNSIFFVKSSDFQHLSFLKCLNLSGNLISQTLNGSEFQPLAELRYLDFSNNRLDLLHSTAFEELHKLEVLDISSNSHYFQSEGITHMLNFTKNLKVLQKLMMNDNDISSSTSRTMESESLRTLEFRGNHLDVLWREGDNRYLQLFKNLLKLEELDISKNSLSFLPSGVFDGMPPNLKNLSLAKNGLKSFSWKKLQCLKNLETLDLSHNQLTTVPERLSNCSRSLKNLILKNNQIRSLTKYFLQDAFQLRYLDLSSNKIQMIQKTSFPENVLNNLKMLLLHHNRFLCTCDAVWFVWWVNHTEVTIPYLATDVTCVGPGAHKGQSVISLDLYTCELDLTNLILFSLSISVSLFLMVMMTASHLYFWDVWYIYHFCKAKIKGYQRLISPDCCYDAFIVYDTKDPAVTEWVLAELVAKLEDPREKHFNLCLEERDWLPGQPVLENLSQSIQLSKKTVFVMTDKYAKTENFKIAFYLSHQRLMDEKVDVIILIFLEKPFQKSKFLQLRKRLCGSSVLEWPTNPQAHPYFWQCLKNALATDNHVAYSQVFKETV
The assay can be described thus: HEK293-Blue-hTLR-7 cells assay. It is filed as cell-based. The note with it: HEK293-Blue-hTLR7 cells, R848 stimulation, 20 hrs, SEAP reporter; read-out: HEK/hTLR7 IC50. From the text:
A stable HEK293-Blue-hTLR-7 cell line was purchased from InvivoGen (Cat. #: hkb-htlr7, San Diego, California, USA). These cells were originally designed for studying the stimulation of human TLR7 by monitoring the activation of NF-κB. A SEAP (secreted embryonic alkaline phosphatase) reporter gene was placed under the control of the IFN-β minimal promoter fused to five NF-κB and AP-1-binding sites. The SEAP was induced by activating NF-κB and AP-1 via stimulating HEK-Blue hTLR7 cells with TLR7 ligands. Therefore the reporter expression was declined by TLR7 antagonist under the stimulation of a ligand, such as R848 (Resiquimod), for incubation of 20 hrs. The cell culture supernatant SEAP reporter activity was determined using QUANTI-Blue™ kit (Cat. #: rep-qb1, Invivogen, San Diego, Ca, USA) at a wavelength of 640 nm, a detection medium that turns purple or blue in the presence of alkaline phosphatase.
HEK293-Blue-hTLR7 cells were incubated at a density of 250,000˜450,000 cells/mL in a volume of 170 μL in a 96-well plate in Dulbecco's Modified Eagle's medium (DMEM) containing 4.5 g/L glucose, 50 U/mL penicillin, […], […], 2 mM L-glutamine, 10% (v/v) heat-inactivated fetal bovine serum with addition of 20 μL test compound in a serial dilution in the presence of final DMSO at 1% and 10 μL of 20 uM R848 in above DMEM, perform incubation under 37° C. in a CO2 incubator for 20 hrs. Then 20 μL of the supernatant from each well was incubated with 180 μL Quanti-blue substrate solution at 37° C. for 2 hrs and the absorbance was read at 620˜655 nm using a spectrophotometer. The signaling pathway that TLR7 activation leads to downstream NF-κB activation has been widely accepted, and therefore similar reporter assay was modified for evaluating TLR7 antagonist.

As to `C[C@@H]1CN(c2ccc(C#N)c3ncccc23)C[C@@H]2CC(c3ccc(C[C@@H]4CNCCO4)cc3)CCN21` (stereo in doubt) [Example 25, 5-[(4R,8R,9aS)-4-methyl-8-[4-[[(2R)-morpholin-2-yl]methyl]phenyl]-1,3,4,6,7,8,9,9a-octahydropyrido[1,2-a]pyrazin-2-yl]quinoline-8-carbonitrile], the IC50 was 8 nM.

Take `C[C@@H]1CN(c2ccc(C#N)c3ncccc23)C[C@@H]2C[C@H](NCc3ccc(N4CCNCC4)cc3)CCN21` [Example 1, 5-[(4R,8R,9aS)-4-methyl-8-[(4-piperazin-1-ylphenyl)methylamino]-1,3,4,6,7,8,9,9a-octahydropyrido[1,2-a]pyrazin-2-yl]quinoline-8-carbonitrile]: the IC50 amounted to 33 nM.

On to `C[C@@H]1CN(c2ccc(C#N)c3ncccc23)CC2C[C@H](c3ccc(N4CCNCC4)cc3)CCN21` (stereo partly drawn) [Example 3, 5-[(4R,8R)-4-methyl-8-(4-piperazin-1-ylphenyl)-1,3,4,6,7,8,9,9a-octahydropyrido[1,2-a]pyrazin-2-yl]quinoline-8-carbonitrile], for which the IC50 was found to be 10 nM.

On to `C[C@@H]1CN(c2ccc(C#N)c3ncccc23)C[C@@H]2C[C@H](c3ccc(N4CCNCC4)nc3)CCN21` [Example 4, 5-[(4R,8R,9aS)-4-methyl-8-(6-piperazin-1-yl-3-pyridyl)-1,3,4,6,7,8,9,9a-octahydropyrido[1,2-a]pyrazin-2-yl]quinoline-8-carbonitrile], for which the IC50 was determined as 6 nM.

Consider `C[C@@H]1CN(c2ccc(C#N)c3ncccc23)C[C@@H]2C[C@H](c3ccc(N4CC(N)C4)nc3)CCN21` [Example 7, 5-[(4R,8R,9aS)-8-[6-(3-aminoazetidin-1-yl)-3-pyridyl]-4-methyl-1,3,4,6,7,8,9,9a-octahydropyrido[1,2-a]pyrazin-2-yl]quinoline-8-carbonitrile], for which the IC50 worked out at 32 nM.

Consider `CO[C@@H]1CN(c2ccc([C@@H]3CCN4[C@@H](C3)CN(c3ccc(C#N)c5ncccc35)C[C@H]4C)cn2)C[C@@H]1N` [Example 13, 5-[(4R,8R,9aS)-8-[6-[(3S,4R)-3-amino-4-methoxy-pyrrolidin-1-yl]-3-pyridyl]-4-methyl-1,3,4,6,7,8,9,9a-octahydropyrido[1,2-a]pyrazin-2-yl]quinoline-8-carbonitrile], for which the IC50 came out at 21 nM.

For `C[C@@H]1CN(c2ccc(C#N)c3ncccc23)C[C@H]2C[C@H](c3ccc(N4CCNCC4)nc3)CCN21` [Example 15, 5-[(4R,8R,9aR)-4-methyl-8-(6-piperazin-1-yl-3-pyridyl)-1,3,4,6,7,8,9,9a-octahydropyrido[1,2-a]pyrazin-2-yl]quinoline-8-carbonitrile], the IC50 turned out to be 24 nM.

With `C[C@@H]1CN(c2ccc(C#N)c3ncccc23)C[C@@H]2C[C@@H](Oc3ccc(N4CCNCC4)nc3)CCN21` [Example 16, 5-[(4R,8S,9aS)-4-methyl-8-[(6-piperazin-1-yl-3-pyridyl)oxy]-1,3,4,6,7,8,9,9a-octahydropyrido[1,2-a]pyrazin-2-yl]quinoline-8-carbonitrile], the IC50 was determined as 35 nM.

On to `C[C@@H]1CN(c2ccc(C#N)c3ncccc23)C[C@@H]2C[C@@H](NCc3ccc(N4CCNCC4)cc3)CCN21` [Example 17, 5-[(4R,8S,9aS)-4-methyl-8-[(4-piperazin-1-ylphenyl)methylamino]-1,3,4,6,7,8,9,9a-octahydropyrido[1,2-a]pyrazin-2-yl]quinoline-8-carbonitrile], for which the IC50 is 35 nM.

For the molecule `C[C@@H]1CN(c2ccc(C#N)c3ncccc23)C[C@@H]2C[C@@H](Oc3cnc(N4CCNCC4)nc3)CCN21` [Example 18, 5-[(4R,8S,9aS)-4-methyl-8-(2-piperazin-1-ylpyrimidin-5-yl)oxy-1,3,4,6,7,8,9,9a-octahydropyrido[1,2-a]pyrazin-2-yl]quinoline-8-carbonitrile], the IC50 is 21 nM.

As for `C[C@@H]1CN(c2ccc(C#N)c3ncccc23)C[C@@H]2C[C@H](Nc3ccc([C@H]4CNCCO4)cc3)CCN21` [Example 20, 5-[(4R,8R,9aS)-4-methyl-8-[4-[(2S)-morpholin-2-yl]anilino]-1,3,4,6,7,8,9,9a-octahydropyrido[1,2-a]pyrazin-2-yl]quinoline-8-carbonitrile], the IC50 stood at 13 nM.

With `[2H]c1ccc2c(N3C[C@@H]4C[C@H](Nc5ccc(C[C@@H]6CNCCO6)cc5)CCN4[C@H](C)C3)ccc(C#N)c2n1` [Example 22, 5-[(4R,8R,9aS)-4-methyl-8-[4-[[(2R)-morpholin-2-yl]methyl]anilino]-1,3,4,6,7,8,9,9a-octahydropyrido[1,2-a]pyrazin-2-yl]-2-deuterio-quinoline-8-carbonitrile], the IC50 amounted to 44 nM.

Regarding `C[C@@H]1CN(c2ccc(C#N)c3ncccc23)C[C@@H]2C[C@H](c3ccc(N4CCOC[C@@H](N)C4)nc3)CCN21` [Example 23, 5-[(4R,8R,9aS)-8[6-[(6S)-6-amino-1,4-oxazepan-4-yl]-3-pyridyl]-4-methyl-1,3,4,6,7,8,9,9a-octahydropyrido[1,2-a]pyrazin-2-yl]quinoline-8-carbonitrile], the IC50 was 21 nM.

`C[C@@H]1CN(c2ccc(C#N)c3ncccc23)C[C@@H]2C[C@@H](c3ccc(C4CNCCO4)cc3)CCN21` (stereo partly drawn) [Example 24, 5-[(4R,8S,9aS)-4-methyl-8-(4-morpholin-2-ylphenyl)-1,3,4,6,7,8,9,9a-octahydropyrido[1,2-a]pyrazin-2-yl]quinoline-8-carbonitrile]: the IC50 is 4 nM.

As to `C[C@@H]1CN(c2ccc(C#N)c3ncccc23)C[C@@H]2C[C@@H](c3ccc(CC4CNCCO4)cc3)CCN21` (stereo partly drawn) [Example 26, 5-[(4R,8S,9aS)-4-methyl-8-[4-(morpholin-2-ylmethyl)phenyl]-1,3,4,6,7,8,9,9a-octahydropyrido[1,2-a]pyrazin-2-yl]quinoline-8-carbonitrile], the IC50 is 30 nM.

For the molecule `CO[C@H]1CN(c2ccc(O[C@H]3CCN4[C@@H](C3)CN(c3ccc(C#N)c5ncccc35)C[C@H]4C)cn2)C[C@H]1N` [Example 28, 5-[(4R,8S,9aS)-8-[[6-[(3R,4S)-3-amino-4-methoxy-pyrrolidin-1-yl]-3-pyridyl]oxy]-4-methyl-1,3,4,6,7,8,9,9a-octahydropyrido[1,2-a]pyrazin-2-yl]quinoline-8-carbonitrile], the IC50 came out at 47 nM.

On to `C[C@@H]1CN(c2ccc(C#N)c3ncccc23)C[C@@H]2C[C@@H](Oc3cncc(N4CCNCC4)c3)CCN21` [Example 29, 5-[(4R,8S,9aS)-4-methyl-8-[(5-piperazin-1-yl-3-pyridyl)oxy]-1,3,4,6,7,8,9,9a-octahydropyrido[1,2-a]pyrazin-2-yl]quinoline-8-carbonitrile], for which the IC50 was 49 nM.

As to `CO[C@@H]1CN(c2ccc(C3CN([C@@H]4CCN5[C@@H](C4)CN(c4ccc(C#N)c6ncccc46)C[C@H]5C)C3)cc2)C[C@H]1N` [Example 30, 5-[(4R,8R,9aS)-8-[3-[4-[(3R,4R)-3-amino-4-methoxy-pyrrolidin-1-yl]phenyl]azetidin-1-yl]-4-methyl-1,3,4,6,7,8,9,9a-octahydropyrido[1,2-a]pyrazin-2-yl]quinoline-8-carbonitrile], the IC50 is 41 nM.
